Reference: the NIST ThermoML archive (doi:10.1016/j.jct.2006.01.015)

Assay: xn = mol fraction of the nth substance listed
Settings: 101 kPa, Liquid

CC(=O)N(C)C [N,N-dimethylethanamide] + CC#N
mass density [kg/m3]
Settings	293.15 K	298.15 K	303.15 K	308.15 K	313.15 K	318.15 K
x2 = 0	941	936.5	932	927.6	923.1	918.6
x2 = 0.0815	934.2	929.7	925.2	920.7	916.2	911.7
x2 = 0.1674	926.3	921.8	917.3	912.8	908.3	903.9
x2 = 0.2386	919.2	914.7	910.2	905.7	901.2	896.8
x2 = 0.3133	911.2	906.7	902.2	897.7	893.2	888.8
x2 = 0.3689	904.8	900.3	895.8	891.3	886.8	882.4
x2 = 0.4223	898.3	893.8	889.3	884.8	880.3	875.8
x2 = 0.4722	891.8	887.3	882.7	878.2	873.7	869.2
x2 = 0.5387	882.5	877.9	873.3	868.8	864.2	859.7
x2 = 0.581	876.1	871.5	866.9	862.3	857.7	853.1
x2 = 0.6379	866.9	862.2	857.6	852.9	848.3	843.6
x2 = 0.6794	859.7	855	850.2	845.5	840.8	836.1
x2 = 0.7236	851.5	846.7	841.9	837.1	832.3	827.5
x2 = 0.8071	833.9	829	824.1	819.2	814.3	809.4
x2 = 0.8776	817	812	807	802	797	792
x2 = 0.9424	799.4	794.3	789.2	784.1	779	773.9

CNC(C)=O [N-methylacetamide] + CC#N
mass density [kg/m3]
Settings	293.15 K	298.15 K	303.15 K	308.15 K	313.15 K	318.15 K
x2 = 0	958.4	954.2	950.1	945.9	941.7	937.6
x2 = 0.0637	951.5	947.2	942.9	938.6	934.3	930
x2 = 0.1232	944.8	940.3	935.9	931.4	927	922.6
x2 = 0.1926	936.5	931.9	927.3	922.8	918.2	913.7
x2 = 0.2665	927.2	922.5	917.8	913.1	908.4	903.7
x2 = 0.3244	919.5	914.7	909.9	905.1	900.3	895.5
x2 = 0.3702	913.2	908.3	903.4	898.5	893.6	888.7
x2 = 0.4365	903.5	898.5	893.5	888.5	883.5	878.5
x2 = 0.4925	894.7	889.6	884.5	879.4	874.3	869.3
x2 = 0.5412	886.6	881.4	876.2	871.1	865.9	860.8
x2 = 0.58	879.8	874.6	869.4	864.2	859	853.8
x2 = 0.6301	870.6	865.3	860.1	854.9	849.6	844.4
x2 = 0.6766	861.6	856.3	851	845.7	840.4	835.1
x2 = 0.7613	843.8	838.4	833	827.7	822.3	816.9
x2 = 0.8305	827.8	822.4	817	811.6	806.2	800.8
x2 = 0.9203	804.8	799.5	794.2	788.8	783.4	778

CC#N [acetonitrile] + CN(C)C=O
mass density [kg/m3]
Settings	293.15 K	298.15 K	303.15 K	308.15 K	313.15 K	318.15 K
x1 = 0.0654	942	937.5	933	928.6	924.1	919.6
x1 = 0.1303	934.6	930.1	925.6	921.2	916.7	912.2
x1 = 0.1912	927.4	922.9	918.4	914	909.4	904.9
x1 = 0.2586	919	914.5	909.9	905.5	900.9	896.4
x1 = 0.3204	910.9	906.3	901.7	897.2	892.6	888.1
x1 = 0.3851	902	897.4	892.7	888.2	883.6	879
x1 = 0.4596	891.2	886.5	881.8	877.2	872.5	867.9
x1 = 0.5125	883.1	878.4	873.6	869	864.2	859.5
x1 = 0.5925	870	865.2	860.4	855.7	850.9	846.1
x1 = 0.6402	861.7	856.9	852	847.3	842.5	837.6
x1 = 0.6899	852.6	847.8	842.9	838.1	833.2	828.3
x1 = 0.731	844.7	839.8	834.9	830	825.1	820.2
x1 = 0.7736	836.1	831.1	826.1	821.2	816.3	811.4
x1 = 0.8522	818.9	813.9	808.9	803.9	798.9	793.9
x1 = 0.9359	798.9	793.8	788.7	783.6	778.5	773.4
x1 = 1	782.1	776.8	771.5	766.3	761	755.7

NC=O [formamide] + CC#N
mass density [kg/m3]
Settings	293.15 K	298.15 K	303.15 K	308.15 K	313.15 K	318.15 K
x2 = 0	1133	1129	1125	1121	1117	1113
x2 = 0.0764	1104.3	1099.7	1095.1	1090.5	1085.9	1081.3
x2 = 0.161	1073.2	1068.1	1063	1057.9	1052.8	1047.7
x2 = 0.2485	1041.1	1035.7	1030.3	1024.7	1019.3	1013.9
x2 = 0.2976	1022.9	1017.3	1011.7	1006.1	1000.5	994.9
x2 = 0.3444	1005.4	999.7	994	988.3	982.6	976.9
x2 = 0.412	980.1	974.3	968.5	962.7	956.9	951.1
x2 = 0.4728	957.8	951.9	946	940.2	934.3	928.3
x2 = 0.5336	935.9	930	924.1	918.2	912.3	906.4
x2 = 0.5862	917.2	911.3	905.4	899.6	893.7	887.8
x2 = 0.6388	898.9	893	887.1	881.3	875.4	869.5
x2 = 0.6994	878	872.2	866.4	860.6	854.8	849
x2 = 0.7554	859.1	853.4	847.7	842	836.3	830.4
x2 = 0.8143	839.6	834	828.1	822.6	817	811.4
x2 = 0.8754	820	814.5	809	803.5	798	792.5
x2 = 0.9398	800.1	794.7	789.2	783.8	778.4	773
